Reference: patent publication US20080280996A1, “Use of Carophyllenes in the Manufacture of Medicaments and Treatment of Bodily Conditions of Inflammation and Inflammatory Pain” (priority 2004, published 2008)

What was measured:
Format in all cases: in vivo
[1] = tested on: histamine-induced oedema; assay: Histamine oedema in mouse paw; details: mice, histamine 100 nmol/paw intraplantar; 50 mg/kg orally 1 h before; 10 min to 48 h
Experimental: The test used below is described by Cunha et. al. in the publication Life Sci. 70:159-169, 2001. Male 25 g-35 g mice were slightly sedated with ether and were injected 50 μl saline containing histamine (100 nmol/paw), intraplantar, in the right paw. The left paw received the same volume of saline and was taken as negative control. The swelling was measured with a plethysmometer (manufacturer: Ugo Basile, Italy) along various time intervals after the injection of the phlogistic agent. The difference between the volumes of the right and the left paw were quantified (in ml) and taken as an index of oedema. One hour before the test the animals were systemically treated (orally) with 50 mg/kg of alpha-humulene. Graph 4 below compares the inhibition of the volume of the oedema by administration of alpha-humulene. Oedema volume measurement time intervals were 10, 20, 30, 60, and 120 min, 24 h and 48 h. Each point represents the average of 5 animals, and the vertical bars the mean standard deviation.

[2] = tested on: iNOS; assay: Expression of enzyme iNOS in carrageenin-injected rat paw (Western blot); details: 50 mg/kg orally 60 minutes before carrageenin 300 μg/paw, subcutaneous paw tissue
Experimental: Animals treated with 0.9% (0.1 ml/10 g) saline were used as control. Another group of animals was treated with 0.5 mg/kg dexamethasone, subcutaneously, 4 hours before the test, and used as positive control. After 60 minutes, the animals received intraplantar injections of 100 μl of carrageenin (300 μg/paw) and were sacrificed after 180 minutes, and subcutaneous paw tissue was removed 240 minutes after the carrageenin injection. The collected tissue was immediately frozen in liquid nitrogen and re-suspended in a buffer of hypotonic lysis (10 mM HEPES N-2-hydroxyethylpiperazine-N'-2-ethanesulfonic acid, 1.5 mM MgCl2, 10 mM KCl, 0.5 mM PMSF phenylmethylsulphonyl fluoride, 1.5 μg/ml trypsin inhibitor, 7 μg/ml pepstatin A, 5 μg/ml leupeptin, 0.1 mM benzamidine 0.1 mM and 0.5 mM dithiothreitol) and homogenized. The homogenate was divided in three 2 ml aliquots, cooled in ice for 15 minutes, vigorously agitated and once again cooled in ice, in the presence of 20 μl 10% non-ionic detergent Nonidet P-40 (Roche Diagnostics, USA). […] The protein concentration was determined by the Bradford method (BioRad Laboratories Inc. kit, Milan, Italy). […] The bands thus obtained were quantified using a chemoluminescence kit and densitometry analysis (relative units) in radiographic films.

[3] = tested on: carrageenin-induced paw oedema; assay: Carrageenin oedema in mouse paw; details: mice, carrageenin intraplantar; alpha-humulene 50 mg/kg orally 1 h before; dexamethasone 0.5 mg/kg subcutaneously 4 h before; 30 min to 48 h
Experimental: The test used below is described by Cunha et. al. in the publication Life Sci. 70:159-169, 2001. […] The left paw received the same volume of saline and was taken as a negative control. The swelling was measured with a plethysmometer (manufacturer: Ugo Basile, Italy) along various time intervals after the injection of the phlogistic agent. The difference between the volumes of the right and the left paw were quantified (in ml) and taken as an index of oedema. One hour before the test the animals were systemically treated (orally) with 50 mg/kg of alphahumulene or trans-caryophyllene. Graph 2 below compares the inhibition of the volume of the oedema by administration of either alpha-humulene or trans-caryophyllene with inhibition obtained with the administration of dexamethasone (0.5 mg/kg, injected subcutaneously 4 h before test) and used as positive control. Oedema volume measurement time point intervals were 30, 60, 120 and 240 min, 24 h and 48 h. Each point represents the average of 5 animals, and the vertical bars the mean standard error deviation.

[4] = tested on: COX-2; assay: Expression of enzyme COX-2 in carrageenin-injected rat paw (Western blot); details: 50 mg/kg orally 60 minutes before carrageenin 300 μg/paw, subcutaneous paw tissue
Experimental: The expression of enzymes COX-2 and iNOS were determined by Western blot according to the methodology described by Medeiros et. al. in the publication Circ Res. 28:1375-1382, 2004. Male 160-180 g rats were orally given 50 mg/kg of trans-caryophyllene. Animals treated with 0.9% (0.1 ml/10 g) saline were used as control. Another group of animals was treated with 0.5 mg/kg dexamethasone, subcutaneously, 4 hours before the test, and used as positive control. After 60 minutes, the animals received intraplantar injections of 100 μl of carrageenin (300 μg/paw) and were sacrificed after 180 minutes, and subcutaneous paw tissue was removed […] after the carrageenin injection. […] The protein concentration was determined by the Bradford method (BioRad Laboratories Inc. kit, Milan, Italy). […] The bands thus obtained were quantified using a chemoluminescence kit and densitometry analysis (relative units) in radiographic films. Graph 10 below (each result represents the average of 5 animals, and the vertical bars the mean standard error deviation) compares inhibition of expression of the COX2 enzymes, obtained by the administration of alpha-humulene and trans-caryophyllene, when evaluated in the subcutaneous tissue or the paw injected with carrageenin, compared to the expression of COX2 induced by carrageenin obtained by treatment with dexomethasone.

[5] = tested on: TNFα; assay: Levels of pro-inflammatory cytokine TNFα in carrageenin-injected rat paw (Elisa); details: 50 mg/kg orally 60 minutes before carrageenin 300 μg/paw, tissue after 180 minutes
Experimental: The test used below is described by Campos et. al. in the publication Br. J. Pharmacol. 135: 1107-1114, 2002, with minor modifications.
Male […]-180 g rats were orally given 50 mg/kg of trans-caryophyllene. Animals treated with 0.9% (0.1 ml/10 g) saline were used as control. Another group of animals was treated with 0.5 mg/kg dexamethasone, subcutaneously, 4 hours before the test, and used as positive control. After 60 minutes, the animals received intraplantar injections of 100 μl of carrageenin (300 μg/paw) and were sacrificed after 180 minutes. Control animals received saline. The subcutaneous tissue of the injected paws was removed and put in a phosphate buffer containing 0.5% tween 20, 0.1 mM benzametonium chloride, 10 mM EDTA, 2 μg/m aprotinin, 0.1 mM PMSF (phenyl methyl sulfonyl fluoride) and 0.5% BSA (bovine serum albumin). The tissues were homogenized and centrifuged at 3000 g, for 10 min, at −4° C. The supernatant was used in the test. The levels of TNFαwere measures with an Elisa kit, according to the manufacturer's instructions (R & D Systems®, USA). The tests were performed in duplicate, and repeated three times. The answers are expressed in pg/mg of tissue. […]

SMILES	histamine-induced oedema formation [1]	expression of enzymes iNOS induced by carrageenin in the paws of rats [2]	inflammatory volume (paw oedema volume) [3]	expression of enzymes COX2 induced by carrageenin in the paws of rats [4]	production of pro-inflammatory cytokine TNFα induced by carrageenin in the paws of rats [5]
C/C1=C\CC/C(C)=C/CC(C)(C)/C=C/C1 [alpha-humulene]	significantly reduced histamine-induced oedema formation	markedly inhibited the expression	reduced the inflammatory volume	markedly inhibited the expression	–
C=C1CC/C=C(\C)CC[C@@H]2[C@@H]1CC2(C)C [trans-caryophyllene]	–	–	–	markedly inhibited the expression	markedly inhibited the production
